Ki data for 19 compounds are collected here from patent US8592383B2, “Cycloalkyl-fused tetrahydroquinolines as CRTH2 receptor modulators” (Merck Sharp & Dohme Corp., priority 2011, dated 2013).

In the first assay the target is T1, hCRTH2 (Homo sapiens, UniProt Q9Y5Y4).
T1 sequence (Q9Y5Y4 1-395): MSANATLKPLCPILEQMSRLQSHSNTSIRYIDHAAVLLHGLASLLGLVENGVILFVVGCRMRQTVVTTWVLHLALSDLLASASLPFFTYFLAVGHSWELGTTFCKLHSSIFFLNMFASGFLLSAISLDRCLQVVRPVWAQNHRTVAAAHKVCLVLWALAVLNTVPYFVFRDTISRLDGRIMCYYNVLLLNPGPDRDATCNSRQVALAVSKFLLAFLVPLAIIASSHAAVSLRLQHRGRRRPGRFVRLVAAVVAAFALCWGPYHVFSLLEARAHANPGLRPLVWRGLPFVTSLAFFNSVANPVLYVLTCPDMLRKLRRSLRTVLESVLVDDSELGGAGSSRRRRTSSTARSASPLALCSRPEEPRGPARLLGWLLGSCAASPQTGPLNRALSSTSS
The arrangement: expressed in transfected cells; host or cells: HEK (human embryonic kidney) cells expressing hCRTH2. As to conditions: Radioligand Binding Assay B; 0.7 nM [3H]PGD2, HEK-hCRTH2 membranes. On the procedure: The filters were then washed with 4 mL of the same buffer and residual radioligand bound to the filter was determined by liquid scintillation counting following equilibration in 25 μl Ultima Gold F™ (Unifilter) (Packard).
Regarding `CC(CC(=O)N(C1CC1)C1c2ccccc2N(C(=O)OCc2ccccc2)C2CCCC21)C(=O)O` (racemic) [compound 10, 4-[{cis,cis-4-[(Benzyloxy)carbonyl]-2,3,3a,4,9,9a-hexahydro-1H-cyclopenta[b]quinolin-9-yl}(cyclopropyl)amino]-2-methyl-4-oxobutanoic acid], the inhibitory constant (Ki) turned out to be 514 nM. On the same count and under the same terms, with `O=C(O)CCC(=O)N(C1CC1)[C@@H]1c2ccc(F)cc2N(C(=O)OCc2ccccc2)[C@@H]2CCC[C@@H]21` (racemic) [compound 16, 4-[{cis,cis-4-[(Benzyloxy)carbonyl]-6-fluoro-2,3,3a,4,9,9a-hexahydro-1H-cyclopenta[b]quinolin-9-yl}(cyclopropyl)amino]-4-oxobutanoic acid] the figure was 2.7 nM.

Still in this assay, the particulars now being: Radioligand Binding Assay B; Table B, rated A-D.
`O=C(O)CCC(=O)N(C1CC1)C1c2ccccc2N(C(=O)NCc2ccccc2)C2CCCC21` (racemic) [23C, 4-{[cis, cis-4-(benzylcarbamoyl)-2,3,3a,4,9,9a-hexahydro-1H-cyclopenta[b]quinolin-9-yl](cyclopropyl)amino}-4-oxobutanoic acid] showed an inhibition constant Ki of 20.1 to 200 nM. On the same count and under the same terms, with `CN(C(=O)N1c2ccccc2C(N(C(=O)CCC(=O)O)C2CC2)C2CCCC21)c1ccccc1` (racemic) [23D, 4-(cyclopropyl{cis, cis-4-[methyl(phenyl)carbamoyl]-2,3,3a,4,9,9a-hexahydro-1H-cyclopenta[b]quinolin-9-yl}amino)-4-oxobutanoic acid] the figure was 20.1 to 200 nM; with `O=C(O)CCC(=O)N(C1CC1)C1c2ccccc2N(S(=O)(=O)c2ccc(OC(F)(F)F)cc2)C2CCCC12` (racemic) [24D, 4-[cyclopropyl[cis,cis-2,3,3a,4,9,9a-hexahydro-4-[[4-(trifluoromethoxy)phenyl]sulfonyl]-1H-cyclopenta[b]quinolin-9-yl]amino]-4-oxobutanoic acid], 20.1 to 200 nM. Same read-out and setting: with `O=C(O)CCC(=O)N(C1CC1)C1c2ccccc2N(c2nnc(-c3ccccc3)o2)C2CCCC21` (racemic) [36A, racemic 4-{cyclopropyl[cis, cis-4-(5-phenyl-1,3,4-oxadiazol-2-yl)-2,3,3a,4,9,9a-hexahydro-1H-cyclopenta[b]quinolin-9-yl]amino}-4-oxobutanoic acid] the figure was 20.1 to 200 nM; with `O=C(O)CCC(=O)N(C1CC1)C1c2ccccc2N(c2nnc(-c3ccc(F)cc3)o2)C2CCCC21` (racemic) [36B, racemic 4-(cyclopropyl{cis, cis-4-[5-(4-fluorophenyl)-1,3,4-oxadiazol-2-yl]-2,3,3a,4,9,9a-hexahydro-1H-cyclopenta[b]quinolin-9-yl}amino)-4-oxobutanoic acid], 20.1 to 200 nM. On the same count and under the same terms, the same measure for `O=C(O)CCC(=O)N(C1CC1)C1c2ccccc2N(c2nnc(-c3ccc(OC(F)(F)F)cc3)o2)C2CCCC21` (racemic) [36C, racemic 4-{cyclopropyl[cis, cis-4-{5-[4-trifluoro-(methoxy)phenyl]-1,3,4-oxadiazol-2-yl}-2,3,3a,4,9,9a-hexahydro-1H-cyclopenta[b]quinolin-9-yl]amino}-4-oxobutanoic acid]: 201 to 7500 nM. Take `CC(CC(=O)N(C1CC1)C1c2ccccc2N(C(=O)OCc2ccccc2)C2CCCC21)C(=O)O` (racemic) [compound 10, 4-[{cis,cis-4-[(Benzyloxy)carbonyl]-2,3,3a,4,9,9a-hexahydro-1H-cyclopenta[b]quinolin-9-yl}(cyclopropyl)amino]-2-methyl-4-oxobutanoic acid]: the Ki fell in the range of 201 to 7500 nM. The same measure, in the same setting: the same measure for `COC(=O)CCC(=O)N(c1ccccc1)[C@@H]1c2ccccc2N(C(=O)OCc2ccccc2)[C@@H]2CCC[C@@H]21` (racemic) [compound 12, Benzyl cis,cis-9-[(4-methoxy-4-oxobutanoyl)(phenyl)amino]-1,2,3,3a,9,9a-hexahydro-4H-cyclopenta[b]quinoline-4-carboxylate]: 201 to 7500 nM; for `CCN(C(=O)CCC(=O)O)[C@@H]1c2ccccc2N(C(=O)OCc2ccccc2)[C@@H]2CCC[C@H]12` (racemic) [compound 13, 4-[{cis,cis-4-[(Benzyloxy)carbonyl]-2,3,3a,4,9,9a-hexahydro-1H-cyclopenta[b]quinolin-9-yl}(ethyl)amino]-4-oxobutanoic acid]: 5.1 to 20 nM. The same measure, in the same setting: the same measure for `O=C(O)CCC(=O)N(C1CC1)[C@@H]1c2ccccc2N(C(=O)c2ccccc2)[C@@H]2CCC[C@@H]21` (racemic) [compound 14, 4-[[cis,cis-4-Benzoyl-2,3,3a,4,9,9a-hexahydro-1H-cyclopenta[b]quinolin-9-yl](cyclopropyl)amino]-4-oxobutanoic acid]: 5.1 to 20 nM; for `COC(=O)CCC(=O)N(C1CC1)C1c2ccc(F)cc2N(C(=O)OCc2ccccc2)C2CCCC21` (racemic) [compound 15, Benzyl cis,cis-9-[cyclopropyl(4-methoxy-4-oxobutanoyl)amino]-6-fluoro-1,2,3,3a,9,9a-hexahydro-4H-cyclopenta[b]quinoline-4-carboxylate]: 20.1 to 200 nM. On the same count and under the same terms, the same measure for `O=C(O)CCC(=O)N(C1CC1)[C@@H]1c2ccc(F)cc2N(C(=O)OCc2ccccc2)[C@@H]2CCC[C@@H]21` (racemic) [compound 16, 4-[{cis,cis-4-[(Benzyloxy)carbonyl]-6-fluoro-2,3,3a,4,9,9a-hexahydro-1H-cyclopenta[b]quinolin-9-yl}(cyclopropyl)amino]-4-oxobutanoic acid]: 1 to 5 nM. Compound `CC(C)OC(=O)N1c2ccccc2C(N(C(=O)CCC(=O)O)C2CC2)C2CCCC21` (racemic) [compound 21, 4-(Cyclopropyl{cis,cis-4-[(1-methylethoxy)carbonyl]-2,3,3a,4,9,9a-hexahydro-1H-cyclopenta[b]quinolin-9-yl}amino)-4-oxobutanoic acid] returned an inhibitory constant (Ki) of 20.1 to 200 nM.

The compound `O=C(O)CCC(=O)N(C1CC1)[C@@H]1c2ccccc2N(C(=O)N2CCc3ccccc32)[C@@H]2CCC[C@@H]21` (racemic) [compound 23, 4-{Cyclopropyl[cis,cis-4-(2,3-dihydro-1H-indol-1-ylcarbonyl)-2,3,3a,4,9,9a-hexahydro-1H-cyclopenta[b]quinolin-9-yl]amino}-4-oxobutanoic acid] returned a Ki of 20.1 to 200 nM. Still for that read-out and setting: the same measure for `O=C(O)CCC(=O)N(C1CC1)[C@@H]1c2ccccc2N(S(=O)(=O)c2ccccc2)[C@@H]2CCC[C@H]12` (racemic) [compound 24, 4-[Cyclopropyl[cis,cis-2,3,3a,4,9,9a-hexahydro-4-(phenylsulfonyl)-1H-cyclopenta[b]quinolin-9-yl]amino]-4-oxobutanoic acid]: 20.1 to 200 nM; for `O=C(O)CCC(=O)N(C1CC1)[C@@H]1c2ccccc2N(C(=O)OCc2ccccc2)[C@@H]2CC[C@@H]21` (racemic) [compound 25, 4-[{cis,cis-3-[(Benzyloxy)carbonyl]-1,2,2a,3,8,8a-hexahydrocyclobuta[b]quinolin-8-yl}(cyclopropyl)amino]-4-oxobutanoic acid]: 20.1 to 200 nM; for `COC(=O)CCC(=O)N(C1CC1)C1c2ccccc2N(C(=O)c2ccc(OC(F)(F)F)cc2)C2CCC21` (racemic) [compound 26, Methyl 4-{cyclopropyl[cis,cis-3-{[4-(trifluoromethoxy)phenyl]carbonyl}-1,2,2a,3,8,8a-hexahydrocyclobuta[b]quinolin-8-yl]amino}-4-oxobutanoate]: 20.1 to 200 nM.

`O=C(O)CCC(=O)N(C1CC1)[C@@H]1c2ccccc2N(C(=O)OCc2ccccc2)[C@@H]2CCCC[C@@H]21` (racemic) [compound 28, 4-[{cis,cis-10-[(Benzyloxy)carbonyl]-1,2,3,4,4a,9,9a,10-octahydroacridin-9-yl}(cyclopropyl)amino]-4-oxobutanoic acid] registered an inhibitory constant (Ki) of 20.1 to 200 nM. Compound `O=C(c1ccccc1)N1c2ccccc2[C@@H](N(C(=O)OCCO)C2CC2)[C@H]2CCC[C@H]21` (racemic) [compound 29, 2-Hydroxyethyl cyclopropyl[cis,cis-4-(phenylcarbonyl)-2,3,3a,4,9,9a-hexahydro-1H-cyclopenta[b]quinolin-9-yl]carbamate] came in with an inhibitory constant (Ki) of 201 to 7500 nM.
